# Patent US20230382924A1, “MODULATORS OF CYSTIC FIBROSIS TRANSMEMBRANE CONDUCTANCE REGULATOR” (VERTEX PHARMACEUTICALS INCORPORATED, priority 2020, published 2023)
# pEC50: −log10 of the molar value. Read-outs that look alike come from different tables or passages of the source.
# Legend:
# [1] = target: T1, CFTR (Homo sapiens, UniProt P13569); assay: Membrane Potential Dye, Enteroid Assay A; format: cell-based; settings: for pEC50: read-out: Ent. A EC50
# Summary of the method: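 Enteroid cells were loaded with methyl oxonol membrane potential dye (plus CaCCinh-A01 and Chicago Sky Blue) for 25 min at room temperature. Chloride transport was started by switching to chloride-free gluconate stimulation solution, with fluorescence read for 15 min. Activity was expressed as % of a triple-combination CFTR modulator control (3 μM, 3 μM, 300 nM acute).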
# Target sequence in this assay (P13569 with tags, fused parts or gaps DEL508-508): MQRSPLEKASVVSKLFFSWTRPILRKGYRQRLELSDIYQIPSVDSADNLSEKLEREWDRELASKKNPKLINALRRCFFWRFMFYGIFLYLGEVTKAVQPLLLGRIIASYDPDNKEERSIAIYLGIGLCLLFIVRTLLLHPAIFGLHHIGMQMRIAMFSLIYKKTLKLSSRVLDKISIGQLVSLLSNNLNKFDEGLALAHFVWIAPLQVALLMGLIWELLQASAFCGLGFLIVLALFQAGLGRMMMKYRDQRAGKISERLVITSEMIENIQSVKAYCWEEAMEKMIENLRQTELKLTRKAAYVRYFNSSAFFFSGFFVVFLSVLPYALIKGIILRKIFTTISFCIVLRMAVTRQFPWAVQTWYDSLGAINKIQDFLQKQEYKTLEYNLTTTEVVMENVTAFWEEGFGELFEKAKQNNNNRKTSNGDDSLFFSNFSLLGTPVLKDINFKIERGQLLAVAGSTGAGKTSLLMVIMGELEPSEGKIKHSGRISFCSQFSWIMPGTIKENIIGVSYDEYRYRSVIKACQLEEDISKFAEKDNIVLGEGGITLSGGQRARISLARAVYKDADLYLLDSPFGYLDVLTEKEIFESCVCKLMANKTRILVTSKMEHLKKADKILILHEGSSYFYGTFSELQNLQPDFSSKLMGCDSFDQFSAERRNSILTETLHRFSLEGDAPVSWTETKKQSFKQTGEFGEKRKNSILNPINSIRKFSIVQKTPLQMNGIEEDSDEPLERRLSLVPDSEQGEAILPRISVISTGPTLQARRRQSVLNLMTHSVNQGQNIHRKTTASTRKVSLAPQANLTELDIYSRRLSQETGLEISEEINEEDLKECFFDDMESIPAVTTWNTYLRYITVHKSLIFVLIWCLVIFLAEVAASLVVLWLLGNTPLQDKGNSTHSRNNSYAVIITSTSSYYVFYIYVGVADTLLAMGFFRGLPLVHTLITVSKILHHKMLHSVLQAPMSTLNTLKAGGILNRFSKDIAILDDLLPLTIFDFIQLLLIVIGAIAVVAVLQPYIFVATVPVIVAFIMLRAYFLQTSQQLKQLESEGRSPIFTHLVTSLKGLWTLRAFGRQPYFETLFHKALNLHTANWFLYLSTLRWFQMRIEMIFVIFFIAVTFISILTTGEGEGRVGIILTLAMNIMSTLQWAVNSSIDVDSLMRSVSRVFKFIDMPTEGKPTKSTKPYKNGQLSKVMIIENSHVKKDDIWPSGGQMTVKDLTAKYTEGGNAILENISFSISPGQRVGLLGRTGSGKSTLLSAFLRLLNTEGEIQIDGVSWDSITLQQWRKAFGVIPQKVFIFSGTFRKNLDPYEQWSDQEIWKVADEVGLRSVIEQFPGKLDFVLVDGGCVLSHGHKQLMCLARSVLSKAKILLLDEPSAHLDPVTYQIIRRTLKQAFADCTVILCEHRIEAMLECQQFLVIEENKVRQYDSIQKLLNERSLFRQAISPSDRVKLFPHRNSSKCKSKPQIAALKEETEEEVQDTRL
# [2] = from Cc1cccc(C)c1-c1cc(OC(CN)c2ccc(Br)cc2)nc(NS(=O)(=O)c2cccc(C(=O)O)c2)n1; amide bond; 13-membered ring; FDPP/DIEA; DMF; 36.8 mM; 25.0 °C; 1.0 h
# [3] = target: T1, CFTR; assay: Membrane Potential Dye, Enteroid Assay B; format: cell-based; settings: for pEC50: read-out: Ent. B EC50
# Summary of the method: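 Enteroid cells loaded 25 min at room temperature with 20 μM methyl oxonol plus 30 μM CaCCinh-A01 and 30 μM Chicago Sky Blue, then switched to chloride-free gluconate buffer. Chloride transport was started by chloride-free stimulation solution, with fluorescence read for 15 min.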
# Target sequence in this assay (P13569 with tags, fused parts or gaps DEL508-508): as above
# [4] = target: T1, CFTR; assay: standard Ussing Chamber Assay for CFTR potentiator activity; format: cell-based
# Target sequence in this assay (P13569 whole entry, species assumed): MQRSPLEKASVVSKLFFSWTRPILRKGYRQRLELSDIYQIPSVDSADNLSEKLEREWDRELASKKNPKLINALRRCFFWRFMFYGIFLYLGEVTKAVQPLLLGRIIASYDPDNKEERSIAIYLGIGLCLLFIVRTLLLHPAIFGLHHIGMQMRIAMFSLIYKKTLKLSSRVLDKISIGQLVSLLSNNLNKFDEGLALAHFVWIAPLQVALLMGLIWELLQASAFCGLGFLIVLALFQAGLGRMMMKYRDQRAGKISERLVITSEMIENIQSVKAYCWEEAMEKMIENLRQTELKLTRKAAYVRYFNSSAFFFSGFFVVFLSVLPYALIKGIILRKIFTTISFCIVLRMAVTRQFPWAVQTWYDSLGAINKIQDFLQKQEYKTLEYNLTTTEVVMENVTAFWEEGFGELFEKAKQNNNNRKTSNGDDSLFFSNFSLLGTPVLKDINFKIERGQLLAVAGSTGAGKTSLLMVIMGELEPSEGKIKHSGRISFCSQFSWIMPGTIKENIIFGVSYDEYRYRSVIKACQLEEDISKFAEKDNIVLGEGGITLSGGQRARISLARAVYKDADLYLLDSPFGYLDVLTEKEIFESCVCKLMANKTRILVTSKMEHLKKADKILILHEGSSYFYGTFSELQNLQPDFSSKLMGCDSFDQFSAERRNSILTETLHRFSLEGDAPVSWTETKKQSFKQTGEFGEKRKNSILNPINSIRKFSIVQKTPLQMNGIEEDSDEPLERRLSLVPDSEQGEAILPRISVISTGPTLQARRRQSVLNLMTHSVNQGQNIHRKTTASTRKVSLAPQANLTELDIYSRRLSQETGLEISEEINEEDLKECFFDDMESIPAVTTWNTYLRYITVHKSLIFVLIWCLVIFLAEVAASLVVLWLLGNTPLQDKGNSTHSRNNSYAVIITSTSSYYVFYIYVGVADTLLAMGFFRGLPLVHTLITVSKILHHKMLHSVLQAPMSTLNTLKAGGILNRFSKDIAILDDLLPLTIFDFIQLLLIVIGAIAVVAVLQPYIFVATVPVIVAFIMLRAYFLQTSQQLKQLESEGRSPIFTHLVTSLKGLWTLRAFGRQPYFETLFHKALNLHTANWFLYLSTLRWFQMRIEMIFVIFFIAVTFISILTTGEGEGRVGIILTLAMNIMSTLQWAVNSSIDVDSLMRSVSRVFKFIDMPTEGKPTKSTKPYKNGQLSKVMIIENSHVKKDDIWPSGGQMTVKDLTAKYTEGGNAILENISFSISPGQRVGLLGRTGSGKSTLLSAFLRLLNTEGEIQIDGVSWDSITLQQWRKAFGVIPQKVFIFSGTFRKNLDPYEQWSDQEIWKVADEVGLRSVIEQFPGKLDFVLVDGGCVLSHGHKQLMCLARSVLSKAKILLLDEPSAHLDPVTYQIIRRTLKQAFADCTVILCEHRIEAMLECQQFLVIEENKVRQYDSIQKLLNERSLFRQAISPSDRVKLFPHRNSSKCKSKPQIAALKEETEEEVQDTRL
# [5] = target: T2, F508del (Homo sapiens, UniProt P13569, DEL508-508); assay: 3T3 assay: membrane potential optical assay for F508del correction in NIH 3T3 cells; format: cell-based; settings: Table 8
# T2 construct: expressed in transfected cells
# T2 sequence (P13569 with tags, fused parts or gaps DEL508-508): as the sequence (P13569 with tags, fused parts or gaps DEL508-508) above
# Summary of the method: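 NIH 3T3 mouse fibroblasts stably expressing F508del were incubated with corrector compounds at a range of concentrations for 16–24 h at 37° C, then loaded with a redistribution voltage-sensing dye. A single addition of forskolin under a chloride gradient (gluconate-substituted bath, pH 7.4) gave the membrane-potential response, read by FLIPR.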
smiles,measurement,setting,value
"Cc1cccc(C)c1-c1cc2nc(n1)NS(=O)(=O)c1cccc(c1)C(=O)N[C@@H]1CN(C(=O)OC(C)(C)C)CC[C@H]1O2 [Compound 59, tert-Butyl (3R,8R)-20-(2,6-dimethylphenyl)-10,16,16-trioxo-2-oxa-16λ^6-thia-6,9,17,19,22-pentaazatetracyclo[16.3.1.111,15.03,8]tricosa-1(21),11(23),12,14,18(22),19-hexaene-6-carboxylate]","ring closure, isolated yield","from Cc1cccc(C)c1-c1cc(O[C@@H]2CCN(C(=O)OC(C)(C)C)C[C@H]2N)nc(NS(=O)(=O)c2cccc(C(=O)O)c2)n1, amide bond, 13-membered ring, COMU/DIEA, DMF, 19.4 mM, 19.0 h",34%
same,Ent. A Max Activity,[1]; Table 9,+++ (+++ is >60%)
same,pEC50,[1]; Table 9,> 6.00
Cc1cccc(C)c1-c1cc2nc(n1)NS(=O)(=O)c1cccc(c1)C(=O)NCC(c1ccc(Br)cc1)O2 (centres unmarked),"ring closure, yield after HPLC",[2],52%
same,"ring closure, isolated yield","from Cc1cccc(C)c1-c1cc(OC(CN)c2ccc(Br)cc2)nc(NS(=O)(=O)c2cccc(C(=O)O)c2)n1, amide bond, 13-membered ring, HATU/DIEA, DMF, 26.4 mM, 25.0 °C, 2.0 h",25%
"Cc1cccc(C)c1-c1cc2nc(n1)NS(=O)(=O)c1cccc(c1)C(=O)NCC1(CCN(C(=O)OC(C)(C)C)CC1)CO2 [Compound 81, tert-Butyl 6-(2,6-dimethylphenyl)-2,2,14-trioxo-spiro[9-oxa-2λ^6-thia-3,5,13,20-tetrazatricyclo[13.3.1.14,8]icosa-1(19),4(20),5,7,15,17-hexaene-11,4′-piperidine]-1′-carboxylate]","ring closure, isolated yield","from Cc1cccc(C)c1-c1cc(Cl)nc(NS(=O)(=O)c2cccc(C(=O)NCC3(CO)CCN(C(=O)OC(C)(C)C)CC3)c2)n1, snar bond, 14-membered ring, NaH, THF, 5.0 mM, 25.0 °C, 3.0 h",66%
same,pEC50,[1]; Enteroid Assay A,5.52 to 6.00
"Cc1cccc(C)c1-c1cc2nc(n1)NS(=O)(=O)c1cccc(c1)C(=O)N[C@@H]1CN(C(=O)OC(C)(C)C)C[C@H]1O2 [Compound 57, tert-Butyl (3R,7R)-19-(2,6-dimethylphenyl)-9,15,15-trioxo-2-oxa-15λ^6-thia-5,8,16,18,21-pentaazatetracyclo[15.3.1.110,14.03,7]docosa-1(20),10(22),11,13,17(21),18-hexaene-5-carboxylate]","ring closure, isolated yield","from Cc1cccc(C)c1-c1cc(O[C@@H]2CN(C(=O)OC(C)(C)C)C[C@H]2N)nc(NS(=O)(=O)c2cccc(C(=O)O)c2)n1, amide bond, 13-membered ring, HATU/DIEA, DMF, 17.1 mM, 72.0 h",18%
same,Ent. A Max Activity,[1]; Table 9,+++ (+++ is >60%)
same,pEC50,[1]; Table 9,5.52 to 6.00
same,Ent. B Max Activity,[3]; Table 9,+++ (+++ is >60%)
same,pEC50,[3]; Table 9,5.52 to 6.00
"C[C@@H]1CCCCC[C@](O)(C(F)(F)F)C2=NN=C(O2)c2nc(c(C(F)(F)F)cc2N)O1 [(6R,12R)-17-amino-12-methyl-6,15-bis(trifluoromethyl)-13,19-dioxa-3,4,18-triazatricyclo[12.3.1.12,5]nonadeca-1(18),2,4,14,16-pentaen-6-ol]",CFTR modulatory activity,[4],confirmed
"Cc1cccc(C)c1-c1cc2nc(n1)NS(=O)(=O)c1cccc(c1)C(=O)N[C@H](C)[C@@H](c1ccc(C(C)(C)C)cc1)O2 [Compound 38, (10R,11R)-10-(4-tert-Butylphenyl)-6-(2,6-dimethylphenyl)-11-methyl-9-oxa-2λ^6-thia-3,5,12,19-tetraazatricyclo[12.3.1.14,8]nonadeca-1(18),4,6,8(19),14,16-hexaene-2,2,13-trione]","ring closure, isolated yield","from Cc1cccc(C)c1-c1cc(O[C@H](c2ccc(C(C)(C)C)cc2)[C@@H](C)N)nc(NS(=O)(=O)c2cccc(C(=O)O)c2)n1, amide bond, 13-membered ring, HATU/NaOtBu, DMF/MeTHF, 52.6 mM, 25.0 °C, 16.0 h, 2 steps",39%
same,Emax,"[5]; NIH3T3, read-out: 3T3 Max Activity",> 60%
same,pEC50,[5],> 6.00
same,Ent. A Max Activity,[1]; Table 8,+++ (+++ is >60%)
same,pEC50,[1]; Table 8,> 6.00
same,Ent. B Max Activity,[3]; Table 8,+++ (+++ is >60%)
same,pEC50,[3]; Table 8,> 6.00
"C=CCCCCCC[C@@H]1COc2cc(-c3ccccc3C=C)nc(n2)NS(=O)(=O)c2cccc(c2)C(=O)N1 [Compound 35, (11R)-11-Oct-7-enyl-2,2-dioxo-6-(2-vinylphenyl)-9-oxa-2λ^6-thia-3,5,12,19-tetrazatricyclo[12.3.1.14,8]nonadeca-1(18),4,6,8(19),14,16-hexaen-13-one]","ring closure, isolated yield","from C=CCCCCCC[C@@H](N)COc1cc(-c2ccccc2C=C)nc(NS(=O)(=O)c2cccc(C(=O)O)c2)n1, amide bond, 13-membered ring, HATU/NaOtBu, DMF/THF, 19.4 mM, 0.0 °C, 0.67 h, 2 steps",35%
same,Ent. B Max Activity,[3]; Table 9,++ (++ is 30-60%)
same,pEC50,[3]; Table 9,> 6.00
